The test system of data set [1] is plasma beta-hydroxybutyrate (BHB). Description: Mouse pharmacokinetic (PK) study of AC-0417-9: plasma BHB after oral dosing. Type of data set: in vivo. The conditions noted are these: single po dose of 3 g/kg. The procedure: Purpose: Determine blood levels of ketone bodies after oral dosing of AC-0417-9 (3,3-Dimethylhexanoate, monoglyceride) at different time points in the mouse. Animals: 12 ICR male mice 6 to 7 weeks old were used. Each mouse weighed between 20-30 grams. General Study Design: Animals (housed 3/cage) were acclimated for at least 3 days prior to dosing. Mice were given a single po dose of 3 g/kg. Animals were anesthetized for blood collection at the times 0.5, 1, 2 and 3 hours. Whole blood (˜0.4 mls) was collected via cardiac puncture and collected into sodium heparin (Na Heparin, 1:9 ratio) anticoagulant. Blood was centrifuged for 8 minutes at 13,000 rpm to isolate plasma. The plasma was transferred into pre-labeled, color-coded eppendorf tubes and frozen at −70° C. […] Plasma levels of beta-hydroxybutyrate (BHB) were determined using a beta-hydroxybutyrate detection kit following manufacturer's directions (StanBio Inc.). Materials: Compound, mouse gavage needles, vehicle, Isoflurane, 1 cc syringes w/26 g needles for blood collection, eppendorf tubes for blood collection, eppendorf tubes for plasma storage, centrifuge, container for sample storage, container for plasma shipment w/dry ice. AC-0417-9 is a clear liquid, 100% active compound by weight. […] Levels of BHB continued to rise during the 3 hour time period with highest levels present at the 3 hour time point.

Data set [2] shares this test system. Description: Mouse pharmacokinetic (PK) study: plasma BHB after oral (po) and intraperitoneal (ip) dosing of TOFA. Type of data set: in vivo. To be noted: for Mean BHB levels: mouse plasma. The procedure:
(§1) Purpose: Determine blood levels of ketone bodies after oral (po) and intraperitoneal (ip) dosing of TOFA at different time points in the mouse. Animals: 75 ICR male mice 6 to 7 weeks old were used. Each mouse weighed between 20-30 grams. General Study Design: Animals (housed 3/cage) were acclimated for at least 3 days prior to dosing. Mice were given either a single po dose (ranging from 0.5 mg/kg, to 5 mg/kg) of compound, or a single ip dose (1 mg/kg). Animals were anesthetized for blood collection at the times 0.5, 1, 2 and 3 hours. Whole blood (˜0.4 mls) was collected via cardiac puncture and collected into sodium heparin (Na Heparin, 1:9 ratio) anticoagulant. Blood was centrifuged for 8 minutes at 13,000 rpm to isolate plasma. The plasma was transferred into pre-labeled, color-coded eppendorf tubes and frozen at −70° C. […] Plasma levels of beta-hydroxybutyrate (BHB) were determined using a beta-hydroxybutyrate detection kit following manufacturer's directions (StanBio Inc.). Materials: Compound, mouse gavage needles, vehicle, Isoflurane, 51 1 cc syringes w/26 g needles for blood collection, 63 eppendorf tubes for blood collection, 63 eppendorf tubes for plasma storage, centrifuge, container for sample storage, container for plasma shipment w/dry ice. AC-8632 (5-(tetradecyloxy)-2-furan-carboxylic acid (TOFA)) is a white crystalline solid, 100% active compound by weight. It is insoluble in aqueous solutions. It is soluble in ethanol (1 mg/ml), DMSO (2 mg/ml) and DMF (10 mg/ml). For maximum solubility in aqueous buffers, AC-8632 should first be dissolved in DMF and then diluted with the aqueous buffer of choice. AC-8632 was solubilized at a concentration of 0.5 mg/ml in a 1:1 solution of DMF::PBS (pH 7.2). For ip treatment, AC-8632 was mixed with DMSO at 2 mg/ml. Results: AC-8632 (TOFA) elevated serum BHB levels at each dose from 0.5 mg-kg to 5 mg/kg. Levels of BHB continued to rise during the 3 hour time period with highest levels present at the 3 hour time point. […] Both po and ip dosing led to elevation of plasma BHB at the 3 hour time point.

A short description of a further data set: Solubility of AC-8632. The conditions noted are these: for solubility: organic solvent or mixture. Type of data set: physicochemical. The procedure:
as §1

A further data set concerns MPTP lesioned mice. In words: Neuroprotective effects of an ACC inhibitor in MPTP lesioned mice. To be noted: MPTP lesioned C57BL6 mice, oral gavage 0.001-5 mg/kg/day. Type of data set: in vivo. The procedure: Neuroprotective effects of an ACC inhibitor in MPTP lesioned mice. 1-methyl-4-phenyl-1,2,3,6-tetrahydropyridine (MPTP), blocks complex I (NADH-ubiquinone oxidoreductase) of the mitochondrial electron transport chain, and causes typical symptoms of Parkinson's disease (PD) and the loss of dopaminergic neurons. C57BL6 mice receive daily orally gavage of CP-610431 at doses ranging from 0.001-5 mg/kg/day for seven days before they are lesioned with MPTP. During the 7 days of MPTP treatment animals will continue treatment with compound 1 or with a placebo. At the end of seven days animals are tested for behavioral effects of MPTP treatment and histopathology is performed.
Three groups of 10 animals are used for this experiment. Group 1 is treated with CP-610431 and lesioned with MPTP, Group 2 is treated with placebo and lesioned with MPTP, and Group 3 is treated with placebo and sham lesioned. After seven days of MPTP treatment behavior and motor skills are tested on all mice. Three tests are used to assess protective behavioral effects: Open Field behavior, Beam Walking test, and Rota Rod test. […]
Dopamine histopathology is immunohistochemically evaluated comparing tyrosine-hydroxylase-positive (TH+) neurons in the substantia nigra density of TH+ nerve terminals in the striatum on the lesioned side of drug treated and control animals. […]

The subject of data set [3] is Acetyl-CoA carboxylase (ACC), CT (carboxyltranferase) reaction. The conditions noted are these: cited from earlier work.

≈ marks a conversion by molar mass, not a printed value. Entries after “also recorded” stand apart in the source; their conditions may differ. Like-named read-outs stand apart in the source and are kept apart here.

In the case of `CCCC(C)(C)CC(=O)OCC(O)CO` (stereo not shown) [AC-0417-9, 3,3-Dimethylhexanoate, monoglyceride], the “serum BHB levels (effect in words)” value in data set [1] is given as “elevation; also recorded: elevate”. The “time point of highest BHB levels” value in data set [1] (3 hour time period) was found to be 3 h.

As for `CCCCCCCCCCCCCCOc1ccc(C(=O)O)o1` [AC-8632, 5-(tetradecyloxy)-2-furan-carboxylic acid], the “Mean BHB levels” value in data set [2] (0.5 mg/kg po, 0 hr) came out at 0.1353 mM; in data set [2] (0.5 mg/kg po, 0.5 hr), 0.2087 mM; in data set [2] (0.5 mg/kg po, 1 hr), 0.236 mM; in data set [2] (0.5 mg/kg po, 2 hr), 0.2427 mM; in data set [2] (0.5 mg/kg po, 3 hr), 0.3473 mM; in data set [2] (1 mg/kg ip, 0 hr) it was 0.1353 mM. Besides, the “Mean BHB levels” value in data set [2] (1 mg/kg ip, 0.5 hr) is 0.1723 mM; in data set [2] (1 mg/kg ip, 1 hr), 0.177 mM; in data set [2] (1 mg/kg ip, 2 hr) it was 0.209 mM; in data set [2] (1 mg/kg ip, 3 hr), 0.2163 mM; in data set [2] (1 mg/kg po, 0 hr), 0.1353 mM; in data set [2] (1 mg/kg po, 0.5 hr), 0.2093 mM. Also, the “Mean BHB levels” value was determined as 0.2187 mM in data set [2] (1 mg/kg po, 1 hr); 0.2827 mM in data set [2] (1 mg/kg po, 2 hr); 0.2973 mM in data set [2] (1 mg/kg po, 3 hr); 0.1353 mM in data set [2] (2 mg/kg po, 0 hr); 0.2153 mM in data set [2] (2 mg/kg po, 0.5 hr); 0.1497 mM in data set [2] (2 mg/kg po, 1 hr). Moreover, the “Mean BHB levels” value is 0.2127 mM in data set [2] (2 mg/kg po, 2 hr); 0.339 mM in data set [2] (2 mg/kg po, 3 hr); 0.1353 mM in data set [2] (5 mg/kg po, 0 hr); 0.106 mM in data set [2] (5 mg/kg po, 0.5 hr); 0.111 mM in data set [2] (5 mg/kg po, 1 hr); 0.323 mM in data set [2] (5 mg/kg po, 2 hr). In addition, in data set [2] (5 mg/kg po, 3 hr), the “Mean BHB levels” value is recorded as 0.259 mM. In addition, in data set [2] (mouse, 0.5-5 mg/kg po, 1 mg/kg ip), the “difference of BHB levels by dose or by route of administration” value is “did not differ significantly”. The “time point of highest BHB levels” value in data set [2] (mouse, 3 hour time period, po and ip) is 3 h. For the same compound, the “serum BHB levels (effect in words)” value in data set [2] (mouse, each dose from 0.5 to 5 mg/kg) is recorded as “elevated”. For the same compound, the solubility in “Solubility of AC-8632” (DMF, read-out: solubility in DMF) was 10000 µg/mL (≈ 30.8 mM); in “Solubility of AC-8632” (DMSO, read-out: solubility in DMSO) it was 2000 µg/mL (≈ 6.16 mM); in “Solubility of AC-8632” (ethanol, read-out: solubility in ethanol) it was 1000 µg/mL (≈ 3.08 mM). Also, the “solubility in aqueous solutions” value in “Solubility of AC-8632” (aqueous solutions) was “insoluble”.

`CCN(CC)C(=O)[C@@H]1CCCN(C2CCN(C(=O)c3c4ccccc4cc4ccccc34)CC2)C1` [CP-610431, R-1′-(anthracene-9-carbonyl)-N,N-diethyl-1,4′-bipiperidine-3-carboxamide]: the “behavior and motor skills (Open Field, Beam Walking, Rota Rod)” value with MPTP lesioned mice was “Improved”. The “number of TH+ neurons” value in the data set with MPTP lesioned mice (substantia nigra) was “Increased”.

As to `O=C(c1c2ccccc2cc2ccccc12)N1CCC(N2CCC[C@@H](C(=O)N3CCOCC3)C2)CC1` [CP-640186, [(3R)-1-[1-(anthracene-9-carbonyl)piperidin-4-yl]piperidin-3-yl]-morpholin-4-ylmethanone], the “inhibition of the CT reaction of ACC (in words)” value in data set [3] was “potent, reversible, isozyme-nonselective inhibitors”.

As a reminder, the solubility is the dissolved amount per volume that the medium holds.

These data come from patent publication US20110003767A1, “Inhibitors of Acetyl-CoA Carboxylase for Treatment of Neuronal Hypometabolism” (NEUERA PHARMACEUTICALS, INC., priority 2007, published 2011).
